In ChEMBL document CHEMBL5113429, “Diazepinone HBV capsid assembly modulators” (Bioorg Med Chem Lett, 2022):
Converted amounts (≈) assume the structure as drawn.

Tests used:
[1] = Thermodynamic solubility in pH 7 buffer; assay type: physicochemical; settings: read-out: Therm_solubility
[2] = Intrinsic clearance in human liver microsomes; assay type: ADME, Microsome; settings: read-out: CLH
[3] = Intrinsic clearance in dog liver microsomes; assay type: ADME, Canis lupus familiaris, Microsome; settings: read-out: CLH
[4] = Intrinsic clearance in rat liver microsomes; assay type: ADME, Microsome; settings: read-out: CLH
[5] = Lipophilicity, log D of compound; assay type: physicochemical; settings: octanol/water
[6] = Modulation of capsid assembly in HBV infected in human HepG2.2.15 cells assessed as inhibition of viral DNA replication
[7] = Intrinsic clearance in human hepatocytes; assay type: ADME, cell-based, Hepatocyte; settings: read-out: CLH
[8] = Oral bioavailability in Beagle dog at 2.5 mg/kg; assay type: ADME, organism-based, Canis lupus familiaris; settings: in vivo
[9] = Half life in rat at 5 mg/kg, po or 1.25 mg/kg, iv; assay type: ADME, organism-based; settings: in vivo
[10] = Tmax in rat at 5 mg/kg, po; assay type: ADME, organism-based; settings: in vivo
[11] = Oral bioavailability in rat at 5 mg/kg; assay type: ADME, organism-based; settings: in vivo
[12] = Protein binding in human plasma; assay type: ADME, cell-free; settings: read-out: PPB (converted)
[13] = Volume of distribution at steady state in rat at 5 mg/kg, po or 1.25 mg/kg, iv; assay type: ADME, organism-based; settings: in vivo
[14] = Volume of distribution at steady state in mouse at 10 mg/kg, po or 2.5 mg/kg, iv; assay type: ADME, organism-based; settings: in vivo
[15] = AUC (0 to infinity) in mouse at 10 mg/kg, po; assay type: ADME, organism-based; parameters: time infinity, dose 10 mg/kg, route po; settings: in vivo
[16] = Cmax in rat at 5 mg/kg, po; assay type: ADME, organism-based; parameters: dose 5 mg/kg, route po; settings: in vivo
[17] = Tmax in Beagle dog at 2.5 mg/kg, po; assay type: ADME, organism-based, Canis lupus familiaris; settings: in vivo
[18] = Intrinsic clearance in dog hepatocytes; assay type: ADME, cell-based, Canis lupus familiaris, Hepatocyte; settings: read-out: CLH
[19] = Cmax in mouse at 10 mg/kg, po; assay type: ADME, organism-based; parameters: dose 10 mg/kg, route po; settings: in vivo
[20] = Tmax in mouse at 10 mg/kg, po; assay type: ADME, organism-based; settings: in vivo
[21] = Intrinsic clearance in mouse liver microsomes; assay type: ADME, Microsome; settings: read-out: CLH
[22] = Cmax in Beagle dog at 2.5 mg/kg, po; assay type: ADME, organism-based, Canis lupus familiaris; parameters: dose 2.5 mg/kg, route po; settings: in vivo
[23] = Intrinsic clearance in rat hepatocytes; assay type: ADME, cell-based, Hepatocyte; settings: read-out: CLH
[24] = target: Core antigen (Hepatitis B virus) (UniProt Q03732); assay: Ratio of EC50 for modulation of capsid assembly in HBV infected in human HepG2.2.15 cells in presence of 40% normal human serum to EC50 for modulation of capsid assembly in HBV infected in human HepG2.2.15 cells in absence of 40% normal human serum; assay type: cell-based
Sequence of Core antigen (Hepatitis B virus) (Q03732 as listed by the source): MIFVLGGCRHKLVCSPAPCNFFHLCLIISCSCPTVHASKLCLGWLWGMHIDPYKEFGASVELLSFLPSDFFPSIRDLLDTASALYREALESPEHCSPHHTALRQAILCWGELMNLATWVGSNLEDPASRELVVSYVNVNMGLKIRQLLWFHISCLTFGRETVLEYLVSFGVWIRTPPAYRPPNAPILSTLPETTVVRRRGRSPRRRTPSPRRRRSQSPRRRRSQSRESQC

[25] = Volume of distribution at steady state in Beagle dog at 2.5 mg/kg, po or 0.5 mg/kg, iv; assay type: ADME, organism-based, Canis lupus familiaris; settings: in vivo
[26] = Protein binding in mouse plasma; assay type: ADME, cell-free; settings: read-out: PPB (converted)
[27] = Intrinsic clearance in mouse hepatocytes; assay type: ADME, cell-based, Hepatocyte; settings: read-out: CLH
[28] = Half life in mouse at 10 mg/kg, po or 2.5 mg/kg, iv; assay type: ADME, organism-based; settings: in vivo
[29] = Protein binding in rat plasma; assay type: ADME, cell-free; settings: read-out: PPB (converted)
[30] = AUC (0 to infinity) in rat at 5 mg/kg, po; assay type: ADME, organism-based; parameters: time infinity, dose 5 mg/kg, route po; settings: in vivo
[31] = AUC (0 to infinity) in Beagle dog at 2.5 mg/kg, po; assay type: ADME, organism-based, Canis lupus familiaris; parameters: time infinity, dose 2.5 mg/kg, route po; settings: in vivo
[32] = Half life in Beagle dog at 2.5 mg/kg, po or 0.5 mg/kg, iv; assay type: ADME, organism-based, Canis lupus familiaris; settings: in vivo
[33] = Oral bioavailability in mouse at 10 mg/kg; assay type: ADME, organism-based; settings: in vivo
[34] = Protein binding in dog plasma; assay type: ADME, cell-free, Canis lupus familiaris; settings: read-out: PPB (converted)

## CN1CC(F)Cn2nc3c(c2C1=O)CN(C(=O)Nc1ccc(F)c(Cl)c1)CC3 (racemic)
[1]
  solubility thermodynamic: 183 µM (≈ 75 µg/mL)
[2]
  CLint scaled: 12 mL/min/kg

## CN1CC(F)Cn2nc3c(c2C1=O)CN(C(=O)Nc1ccc(F)c(C#N)c1)CC3 (racemic)
[1]
  solubility thermodynamic: 179 µM (≈ 71.7 µg/mL)
[2]
  CLint scaled: 5.2 mL/min/kg

## CC1CN(C)C(=O)c2c3c(nn2C1)CCN(C(=O)Nc1ccc(F)c(Cl)c1)C3 (racemic)
[1]
  solubility thermodynamic: 182 µM (≈ 73.9 µg/mL)
[2]
  CLint scaled: 28 mL/min/kg

## CN1CCCCn2nc3c(c2C1=O)CN(C(=O)Nc1ccc(F)c(Cl)c1)CC3
[1]
  solubility thermodynamic: > 200 µM
[2]
  CLint scaled: 16 mL/min/kg

## CN1CC(F)Cn2nc3c(c2C1=O)CN(C(=O)Nc1ccc(F)c(Br)c1)CC3 (racemic)
[1]
  solubility thermodynamic: 191 µM (≈ 86.8 µg/mL)
[2]
  CLint scaled: 22 mL/min/kg

## CN1CC(F)Cn2nc3c(c2C1=O)CN(C(=O)Nc1ccnc(Br)c1F)CC3 (racemic)
[1]
  solubility thermodynamic: 170 µM (≈ 77.4 µg/mL)
[2]
  CLint scaled: 5 mL/min/kg

## CN1CC(N(C)C)Cn2nc3c(c2C1=O)CN(C(=O)Nc1ccc(F)c(Cl)c1)CC3 (racemic)
[1]
  solubility thermodynamic: 187 µM (≈ 81.3 µg/mL)
[2]
  CLint scaled: 14 mL/min/kg

## C[C@@H]1Cc2nn3c(c2CN1C(=O)Nc1ccc(F)c(C#N)c1)C(=O)N(C)C[C@H](F)C3
[3]
  CLint scaled: < 8 mL/min/kg
[4]
  CLint scaled: 31 mL/min/kg
[5]
  logD: 1.96
[2]
  CLint scaled: < 6 mL/min/kg

## CN1CCn2nc3c(c2C1=O)CN(C(=O)Nc1ccc(F)c(Cl)c1)CC3
[1]
  solubility thermodynamic: 179 µM (≈ 67.6 µg/mL)
[2]
  CLint scaled: 26 mL/min/kg

## CN1CC(OCC(F)F)Cn2nc3c(c2C1=O)CN(C(=O)Nc1ccc(F)c(Cl)c1)CC3 (racemic)
[1]
  solubility thermodynamic: 181 µM (≈ 85.4 µg/mL)
[2]
  CLint scaled: 5.4 mL/min/kg

## CN1OC(CO)Cn2nc3c(c2C1=O)CN(C(=O)Nc1ccc(F)c(Cl)c1)CC3 (racemic)
[1]
  solubility thermodynamic: 169 µM (≈ 71.6 µg/mL)
[6]
  EC50: 9 nM
[2]
  CLint scaled: < 7 mL/min/kg

## CN1CC(F)Cn2nc3c(c2C1=O)CN(C(=O)Nc1ccc(F)c(C(F)(F)F)c1)CC3 (racemic)
[1]
  solubility thermodynamic: 175 µM (≈ 77.6 µg/mL)
[2]
  CLint scaled: 17 mL/min/kg

## CN1C(=O)c2c3c(nn2CCC1CO)CCN(C(=O)Nc1ccc(F)c(Cl)c1)C3 (racemic)
[1]
  solubility thermodynamic: 189 µM (≈ 79.7 µg/mL)
[2]
  CLint scaled: 9 mL/min/kg

## CN1CCC(CO)n2nc3c(c2C1=O)CN(C(=O)Nc1ccc(F)c(Cl)c1)CC3 (racemic)
[1]
  solubility thermodynamic: 195 µM (≈ 82.3 µg/mL)
[2]
  CLint scaled: 4.7 mL/min/kg

## CN1CC(CO)Cn2nc3c(c2C1=O)CN(C(=O)Nc1ccc(F)c(Cl)c1)CC3 (racemic)
[1]
  solubility thermodynamic: 191 µM (≈ 80.6 µg/mL)
[2]
  CLint scaled: < 5 mL/min/kg

## C[C@@H]1Cc2nn3c(c2CN1C(=O)Nc1ccc(F)c(C#N)c1)C(=O)N(C)C[C@@H](F)C3
[7]
  CLint scaled: 7.7 mL/min/kg
[1]
  solubility thermodynamic: 72 µM (≈ 29.8 µg/mL)
[3]
  CLint scaled: < 6 mL/min/kg
[8]
  bioavailability: 47%
[9]
  half-life: 1.92 h
[4]
  CLint scaled: 44 mL/min/kg
[10]
  Tmax: 1.33 h
[11]
  bioavailability: 54%
[12]
  fraction unbound: 0.19
[13]
  Vdss: 2.09 L/kg
[14]
  Vdss: 0.99 L/kg
[15]
  AUC(0-inf): 1930 ng·h/mL
[16]
  Cmax: 98 ng/mL
[17]
  Tmax: 2 h
[5]
  logD: 1.95
[18]
  CLint scaled: < 6.4 mL/min/kg
[19]
  Cmax: 1270 ng/mL
[20]
  Tmax: 0.5 h
[21]
  CLint scaled: 28 mL/min/kg
[22]
  Cmax: 1150 ng/mL
[23]
  CLint scaled: 57 mL/min/kg
[24]
  Ratio EC50: 1.5
[25]
  Vdss: 1 L/kg
[26]
  fraction unbound: 0.34
[27]
  CLint scaled: 101 mL/min/kg
[28]
  half-life: 0.51 h
[29]
  fraction unbound: 0.38
[30]
  AUC(0-inf): 697 ng·h/mL
[31]
  AUC(0-inf): 7000 ng·h/mL
[32]
  half-life: 4.3 h
[33]
  bioavailability: 44%
[2]
  CLint scaled: < 6 mL/min/kg
[34]
  fraction unbound: 0.23

## C[C@@H]1Cc2nn3c(c2CN1C(=O)Nc1ccc(F)c(C#N)c1)C(=O)N(C)O[C@@H](CF)C3
[24]
  Ratio EC50: 2

## CN1CC(C(F)F)Cn2nc3c(c2C1=O)CN(C(=O)Nc1ccc(F)c(Cl)c1)CC3 (racemic)
[1]
  solubility thermodynamic: 175 µM (≈ 77.3 µg/mL)
[2]
  CLint scaled: 15 mL/min/kg

## CN1CC(F)(F)Cn2nc3c(c2C1=O)CN(C(=O)Nc1ccc(F)c(Cl)c1)CC3
[1]
  solubility thermodynamic: 181 µM (≈ 77.4 µg/mL)
[2]
  CLint scaled: 8.1 mL/min/kg

## CN1CCCn2nc3c(c2C1=O)CN(C(=O)Nc1ccc(F)c(Cl)c1)CC3
[1]
  solubility thermodynamic: 195 µM (≈ 76.4 µg/mL)
[2]
  CLint scaled: 11 mL/min/kg
